≈ marks a conversion by molar mass, not a printed value. Read-outs that look alike come from different tables or passages of the source.
Key:
Bacillus subtilis A = test: MIC, method of Example 30 with 1/100 dilution of overnight broth (Example 46)
Method: (§1) The cultures were incubated overnight and the points of bacterial growth recorded next morning by observing the turbidity of the culture.

Escherchia coli 10418 = test: as above
Method: as §1

Staph. aureus Russell = test: as above
Method: as §1

Staph. aureus Oxford = test: as above
Method: as §1

[1] = system: strains of Klebsiella aerogenes (A, E 70, 62); test: Growth inhibition of the test organisms of Table 8 by the esters alone; conditions: read-out: concentration at which growth of the test organisms was not inhibited
Method: The final dilution of the inoculum was 0.5 ×10^-2. The tray was incubated at 37° C overnight and a record made next morning of the end points of bacterial growth.

[2] = target: T1, β-lactamase produced by Escherichia coli JT4 (Escherichia coli, UniProt P62593); test: β-lactamase inhibition assay (Description 1); format: biochemical
T1 construct: This cell suspension was then disrupted in an MSE ultrasonic disintegrator; endogenous in cells; supernatant of sonicated cells
T1 sequence (P62593 24-286 limits assumed): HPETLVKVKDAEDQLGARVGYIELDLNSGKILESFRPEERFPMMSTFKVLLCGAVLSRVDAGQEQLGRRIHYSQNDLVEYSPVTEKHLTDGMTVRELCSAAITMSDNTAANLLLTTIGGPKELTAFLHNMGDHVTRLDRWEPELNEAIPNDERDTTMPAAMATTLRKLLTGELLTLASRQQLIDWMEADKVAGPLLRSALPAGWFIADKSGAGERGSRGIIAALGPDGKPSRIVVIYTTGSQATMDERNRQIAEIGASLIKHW
Method: Solutions containing clavulanic acid (culture filtrate, samples from isolation procedure and the like) are incubated for 15 minutes with a β-lactamase preparation in 0.05M phosphate buffer at pH 7 and 37° C. During this time, enzyme inhibition or inactivation occurs. Substrate (benzylpenicillin) is then added and incubation continued for 30 minutes at 37° C. The amount of enzymic degradation of the substrate to penicilloic acid is determined by the hydroxylamine assay for penicillin. The amount of β-lactamase used is such as to give 75% hydrolysis of the benzylpenicillin in 30 minutes at 37° C.
The extent of hydrolysis is a reflection of the amount of enzyme remaining uninhibited.
The β-lactamase produced by Escherichia coli JT4 is used as an enzyme. […] Other similar R-factor controlled β-lactamases may be used if desired.
For use in the assay procedure, the supernatant is diluted in 0.005M phosphate buffer until it gives about 75% hydrolysis of a 1 mg/ml. solution of benzylpenicillin in 30 minutes at 37° C.
Suitable dilutions of the inhibitor preparation and β-lactamase solution are mixed and incubated at 37° C for 15 minutes (Test). […] The absorption of the final solutions is measured in an E.E.L. Colorimeter or a Spectrophotometer at 490 nm against the reagent blank.
The percentage inhibition of the β-lactamase is calculated as follows […]

[3] = system: Staphylococcus aureus Russell; test: Growth inhibition / synergism; format: cell-based; conditions: for MIC: Staphylococcus aureus, agent alone, read-out: concentration in whose presence growth is not inhibited
[4] = system: Klebsiella aerogenes E 70; test: MIC / synergism, microtitre method (Example 42); format: cell-based; conditions: for Antibacterial synergism value, +5μg/ml. synergist (M.I.C. by method of Example 42): +5μg/ml. synergist (clavulanic acid sodium salt); for MIC: Klebsiella aerogenes
Klebsiella aerogenes A [5] = test: MIC / synergism, microtitre method (Example 42); format: cell-based; conditions: for Antibacterial synergism value, +5μg/ml. synergist (M.I.C. by method of Example 42): +5μg/ml. synergist (clavulanic acid sodium salt); for MIC: Klebsiella aerogenes, Alone (Tables 7, 8), Example 42 records M.I.C. in μg/ml, read-out: Antibacterial synergism value, Alone (M.I.C. by method of Example 42)
Staphylococcus aureus = test: MIC / synergism, microtitre method (Example 42); format: cell-based; conditions: for MIC: Staphylococcus aureus, agent alone (Tables 5, 6), inoculum final dilution 0.5 ×10^-2, 37° C overnight, read-out: Minimum Inhibitory Concentration
[6] = system: Staphylococcus aureus (Russell); test: M.I.C. synergism with clavulanic acid methyl ester (Example 32); format: cell-based
Serratia marcescens = test: MIC / synergism, microtitre method (Example 42); format: cell-based; conditions: agent alone, inoculum final dilution 0.5 ×10^-2, 37° C overnight, read-out: Minimum Inhibitory Concentration
[7] = system: Escherichia coli NCTC 10481; test: MIC / synergism, microtitre method (Example 42); format: cell-based; conditions: NCTC10481, agent alone, inoculum final dilution 0.5 ×10^-2, 37° C overnight, read-out: Minimum Inhibitory Concentration
Proteus mirabilis C889 = test: M.I.C. synergism with clavulanic acid methyl ester (Example 32); format: cell-based; conditions: plus 5 μg/ml clavulanic acid methyl ester
Klebsiella aerogenes 62 = test: MIC / synergism, microtitre method (Example 42); format: cell-based; conditions: for Antibacterial synergism value, +5μg/ml. synergist (M.I.C. by method of Example 42): +5μg/ml. synergist (clavulanic acid sodium salt); for MIC: Klebsiella aerogenes, 62, Alone (Tables 7, 8), Example 42 records M.I.C. in μg/ml, read-out: Antibacterial synergism value, Alone (M.I.C. by method of Example 42)
Klebsiella aerogenes A [8] = test: Growth inhibition / synergism; format: cell-based; conditions: for MIC: Klebsiella aerogenes, agent alone, read-out: concentration in whose presence growth is not inhibited; for concentration inhibiting growth when 5 μg/ml. of clavulanic acid is also present: plus 5 μg/ml clavulanic acid
Proteus mirabilis 899 = test: microbe, parasite or virus in culture; format: cell-based; conditions: method of Example 42
[9] = system: Staphylococcus aureus (Russell); test: MIC / synergism, microtitre method (Example 42); format: cell-based
bacteria = test: Tests for antibacterial activity in broth (Example 32); format: cell-based; conditions: may be due to clavulanic acid liberated by hydrolysis
[10] = Hydrolysis of the methyl ester to clavulanic acid in pH 7 buffer; format: physicochemical
Method: The reaction was followed by paper chromatography (bioautographic system). Using the butanol/ethanol/water system to follow the reaction over a period of 2 hours the zone of the methyl ester at Rf 0.79 decreased in size as the zone of clavulanic acid at Rf 0.12 increased.

[11] = with 5 μg/ml of benzyl ester of clavulanic acid
[12] = with 5 μg/ml of methyl ester of clavulanic acid
[13] = heavy inoculum, 1/100 dilution of overnight broth, Example 30 records MIC in μg/ml
[14] = plus 5 μg/ml clavulanic acid sodium salt, method of Example 42

CCCCCCCCCOC(=O)[C@H]1/C(=C/CO)O[C@@H]2CC(=O)N21 [Nonyl ester, Nonyl Clavulanate]
MIC (Bacillus subtilis A; Bacillus subtilis): 31 µg/mL (≈ 95.3 µM)
MIC (Escherchia coli 10418): 250 µg/mL (≈ 768 µM)
MIC (Staph. aureus Russell; Staphylococcus aureus): 31 µg/mL (≈ 95.3 µM)
MIC (Staph. aureus Oxford; Staphylococcus aureus): 31 µg/mL (≈ 95.3 µM)

CC(C)(C)C(=O)OCOC(=O)[C@H]1/C(=C/CO)O[C@@H]2CC(=O)N21 [Pivaloyloxymethyl ester, Pivaloyloxymethyl Clavulanate]
MIC (Bacillus subtilis A; Bacillus subtilis): 62 µg/mL (≈ 198 µM)
MIC (Escherchia coli 10418): 125 µg/mL (≈ 399 µM)
MIC (Staph. aureus Russell; Staphylococcus aureus): 62 µg/mL (≈ 198 µM)
MIC (Staph. aureus Oxford; Staphylococcus aureus): 31 µg/mL (≈ 98.9 µM)

O=C(OCc1ccccc1)[C@H]1/C(=C/CO)O[C@@H]2CC(=O)N21 [Benzyl ester, benzyl ester of 3-(β-hydroxyethylidine)-7-oxo-4-oxa-1-azabicyclo [3,2,0]heptane-2-carboxylic acid]
MIC [1]: > 100 µg/mL
MIC (Bacillus subtilis A; Bacillus subtilis): 250 µg/mL (≈ 864 µM)
MIC (Escherchia coli 10418): 125 µg/mL (≈ 432 µM)
MIC (Staph. aureus Russell; Staphylococcus aureus): 125 µg/mL (≈ 432 µM)
MIC (Staph. aureus Oxford; Staphylococcus aureus): 62 µg/mL (≈ 214 µM)

O=C(O)[C@H]1/C(=C/CO)O[C@@H]2CC(=O)N21 [clavulanic acid, Z-(2R,5R)-3-(β-hydroxyethylidene)-7-oxo-4-oxa-1-azabicyclo[3,2,0]heptane-2-carboxylic acid]
mode of inhibition of the β-lactamase of Escherichia coli [2]: progressively and irreversibly inhibits
MIC [3]: > 5 µg/mL

CC1(C)S[C@@H]2[C@H](NC(=O)[C@H](N)c3ccccc3)C(=O)N2[C@H]1C(=O)O [ampicillin]
Ampicillin 5 μg/ml of Benzyl Ester of clavulanic acid (M.I.C. by method of Example 42) [4, 11]: 3.9
Ampicillin 5 μg/ml of Methyl Ester of clavulanic acid (M.I.C. by method of Example 42) [4, 12]: 3.9
Ampicillin 5 μg/ml of Benzyl Ester of clavulanic acid (M.I.C. by method of Example 42) (Klebsiella aerogenes A [5]; [11]): 1.9
Ampicillin 5 μg/ml of Methyl Ester of clavulanic acid (M.I.C. by method of Example 42) (Klebsiella aerogenes A [5]; [12]): 1.9
MIC [3]: > 100 µg/mL
concentration inhibiting growth in the presence of 1 μg/ml. of clavulanic acid ([3]; plus 1 μg/ml clavulanic acid): less than 10 μg/ml
MIC (Staphylococcus aureus): 250 µg/mL
M.I.C. in the presence of 1.0 μg/ml. clavulanic acid methyl ester ([6]; plus 1 μg/ml clavulanic acid methyl ester): < 0.4 µg/mL
MIC (Serratia marcescens): > 500 µg/mL
MIC [7]: 1.8 µg/mL
M.I.C. in the presence of 5 μg/ml. clavulanic acid methyl ester (Proteus mirabilis C889): 31 µg/mL
Ampicillin 5 μg/ml of Benzyl Ester of clavulanic acid (M.I.C. by method of Example 42) (Klebsiella aerogenes 62; [11]): 3.9
Ampicillin 5 μg/ml of Methyl Ester of clavulanic acid (M.I.C. by method of Example 42) (Klebsiella aerogenes 62; [12]): 3.9

CC1(C)S[C@@H]2[C@H](NC(=O)C(C(=O)O)c3ccccc3)C(=O)N2[C@H]1C(=O)O (stereo partly shown) [carbenicillin]
Antibacterial synergism value, +5μg/ml. synergist (M.I.C. by method of Example 42) [4]: 15
MIC ([4]; E70, Alone (Tables 7, 8), Example 42 records M.I.C. in μg/ml, read-out: Antibacterial synergism value, Alone (M.I.C. by method of Example 42)): 500 µg/mL
Antibacterial synergism value, +5μg/ml. synergist (M.I.C. by method of Example 42) (Klebsiella aerogenes A [5]): 7.8
MIC (Klebsiella aerogenes A [5]): 500 µg/mL
MIC (Klebsiella aerogenes A [8]): > 125 µg/mL
concentration inhibiting growth when 5 μg/ml. of clavulanic acid is also present (Klebsiella aerogenes A [8]): less than 12.5 μg/ml
Antibacterial synergism value, +5μg/ml. synergist (M.I.C. by method of Example 42) (Klebsiella aerogenes 62): 7.8
MIC (Klebsiella aerogenes 62): 125 µg/mL

CC1(C)S[C@@H]2[C@H](NC(=O)Cc3ccccc3)C(=O)N2[C@H]1C(=O)O [Benzylpenicillin, benzylpenicillin]
Antibacterial synergism value, +5μg/ml. synergist (M.I.C. by method of Example 42) [4]: 15.6
MIC ([4]; E70, read-out: Antibacterial synergism value, Alone (M.I.C. by method of Example 42)): 500 µg/mL
Antibacterial synergism value, +5μg/ml. synergist (M.I.C. by method of Example 42) (Klebsiella aerogenes A [5]): 7.8
MIC (Klebsiella aerogenes A [5]): 250 µg/mL
MIC (Klebsiella aerogenes A [8]): > 125 µg/mL
concentration inhibiting growth when 5 μg/ml. of clavulanic acid is also present (Klebsiella aerogenes A [8]): less than 12.5 μg/ml
Antibacterial synergism value, +5μg/ml. synergist (M.I.C. by method of Example 42) (Klebsiella aerogenes 62): 15.6
MIC (Klebsiella aerogenes 62): 250 µg/mL

O=C1OC(OC(=O)[C@H]2/C(=C/CO)O[C@@H]3CC(=O)N32)c2ccccc21 (stereo partly shown) [Phthalidyl ester, Clavulanic Acid Phthalide Esters]
MIC (Bacillus subtilis A; [13]): 125
MIC (Escherchia coli 10418; [13]): 125
MIC (Staph. aureus Russell; [13]): 15
MIC (Staph. aureus Oxford; [13]): 31

O=C(Cc1cccs1)N[C@@H]1C(=O)N2C(C(=O)[O-])=C(C[n+]3ccccc3)CS[C@H]12 [cephaloridine]
MIC (Staphylococcus aureus): 15 µg/mL
Minimum Inhibitory Concentration in presence of 5μg/ml clavulanic acid sodium salt (Staphylococcus aureus; [14]): 3.7 µg/mL
M.I.C. in the presence of 1.0 μg/ml. clavulanic acid methyl ester [6]: < 0.03 µg/mL
MIC ([6]; Staphylococcus aureus, antibiotic alone, read-out: minimum inhibitory concentration (M.I.C.)): 1.5 µg/mL
MIC (Proteus mirabilis 899; Proteus mirabilis, 899, agent alone, * = Tailing Point, read-out: Minimum Inhibitory Concentration): 62 µg/mL (≈ 149 µM)
Minimum Inhibitory Concentration in presence of 5μg/ml clavulanic acid sodium salt (Proteus mirabilis 899; plus 5 μg/ml clavulanic acid sodium salt): 7.5 µg/mL
MIC ([9]; Staphylococcus aureus, agent alone (Tables 5, 6), inoculum final dilution 0.5 ×10^-2, 37° C overnight, read-out: Minimum Inhibitory Concentration): 3.1 µg/mL
Minimum Inhibitory Concentration in presence of 5μg/ml clavulanic acid sodium salt [9, 14]: < 0.03 µg/mL

COC(=O)[C@H]1/C(=C/CO)O[C@@H]2CC(=O)N21 [clavulanic acid methyl ester]
MIC [1]: > 100 µg/mL
MIC (Klebsiella aerogenes A [8]): > 10 µg/mL
antibacterial activity in broth (bacteria): broad spectrum activity but of a lower order than shown by clavulanic acid
conversion of the ester to clavulanic acid ([10]; 1 mg/ml, 37° C, 0.05M phosphate buffer pH 7, followed over 2 hours by paper chromatography): Slow conversion of the ester to clavulanic acid
hydrolysis to clavulanic acid ([10]; water buffered to pH7): slowly hydrolyze to clavulanic acid

From patent US4060530A, “Clavulanic acid amides” (Beecham Group Limited, priority 1975, dated 1977)
